Experimental data published in EP0241395A2, “Sweeteners derived from n-phenylguanidinoacetic and n-phenylethananamidinacetic acids, and compositions containing such sweeteners” (UNIVERSITE CLAUDE BERNARD - LYON 1, priority 1986, dated 1987).
Peptide text beside a SMILES is read from it.

Key:
[1] = tested on: groupe de huit goûteurs expérimentés; assay: Sweetening power judged by a panel of eight experienced tasters against a sucrose reference solution; type: in vivo; settings: weight basis; for Pouvoir édulcorant: Table II, relative to a 2 % sucrose solution; for pouvoir édulcorant, sur une base pondérale: approximate
Outline: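 Panel of eight experienced tasters compared aqueous solutions of compound at varying concentrations with a sucrose reference at 2 %, sometimes 5 % and 10 %. Sweetening power is the weight ratio of sucrose to compound at equal sweetness intensity, as judged by a majority of tasters, and depends on the reference concentration.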

[2] = Stability in solution at pH 3 and 70 °C, remaining compound determined by HPLC; type: physicochemical; settings: pH 3, phosphate buffer 1mM; for remaining at 168 h: 1 mm phosphate buffer, after seven days, read-out: composé restant
Experimental: Les agents édulcorants de la présente invention sont généralement stables. La stabilité est déterminée à pH 3 en solution dans un tampon phosphate 1mM à 70 °C. La concentration du composé restant est déterminée par chromatographie liquide haute pression (HPLC). Par exemple, après six jours dans de telles conditions, on retrouve encore la moitié du composé de l'exemple 14 dans lequel X4 est CN, X3, X5, R1, R3 et R4 sont H, A est N, et R2 est (S) CH (CH3) C6H5. On améliore la stabilité lorsque l'on remplace l'atome d'hydrogène de R1 par CH3. Ainsi, après sept jours dans les mêmes conditions , on retrouve encore 88 % du composé de l'exemple 31 dans lequel X3 et X5 sont Cl, X4, R3 et R4 sont H, A est N, R1 est CH3, et R2 est CH2C6H5. De la même manière, toujours après sept jours et dans les mêmes conditions, on retrouve 86 % du composé de l'exemple 33 dans lequel X4 est CN, X3, X5, R3 et R4 sont H, A est N, R1 est CH3, et R2 est CH2C6H5.

[3] = cited from earlier work
[4] = by comparison with a 2 % sucrose solution
[5] = by comparison with a 5 % sucrose solution
[6] = by comparison with a 10 % sucrose solution

Row | Compound | Pouvoir édulcorant [1] | pouvoir édulcorant, sur une base pondérale [1, 4] | Pouvoir sucrant (saccharose = 1) [3] | further results
1 | CN(Cc1ccccc1)C(=Nc1ccc(C#N)cc1)NCC(=O)O [Exemple 33, acide N-[N-méthyl-N-benzylamino(4-cyanophénylimino)méthyl]-2-aminoéthanoique] | 3000 | ~3 000 fois celui du saccharose | – | pouvoir édulcorant, sur une base pondérale [1, 5]: ~1800 times sucrose; pouvoir édulcorant, sur une base pondérale [1, 6]: ~1 200 fois celui du saccharose; remaining at 168 h [2]: 86%
2 | Cyclamate de sodium | – | – | 30 | –
3 | O=C1NS(=O)(=O)c2ccccc21 [Saccharine] | – | – | 400 | –
4 | C=C1C[C@@]23CC[C@H]4[C@@](C)(CCC[C@@]4(C)C(=O)O[C@@H]4O[C@H](CO)[C@@H](O)[C@H](O)[C@H]4O)[C@@H]2CC[C@]1(O[C@@H]1O[C@H](CO)[C@@H](O)[C@H](O)[C@H]1O[C@@H]1O[C@H](CO)[C@@H](O)[C@H](O)[C@H]1O)C3 [Stévioside] | – | – | 300 | –
5 | CN(Cc1ccccc1)C(=Nc1cc(Cl)cc(Cl)c1)NCC(=O)O [Exemple 31, acide N-[N-méthyl-N-benzylamino (3,5-dichlorophénylimino)méthyl]-2-aminoéthanoïque] | 20000 | ~20 000 fois celui du saccharose | – | remaining at 168 h [2]: 88%
6 | C[C@@H](NC(=O)[C@@H](N)CC(=O)O)C(=O)NC1C(C)(C)SC1(C)C [Alitame] | – | – | 2000 | –
7 | Glycyrrhizine | – | – | 50 | –
8 | C[C@H](NC(=Nc1ccc(C#N)cc1)NCC(=O)O)c1ccccc1 [Exemple 14, acide N-[N-(S)-α-méthylbenzylamino (4-cyanophénylimino)méthyl]-2-aminoéthanoïque] | 28000 | ~28 000 fois celui du saccharose | – | pouvoir édulcorant, sur une base pondérale [1, 5]: ~20 000 fois celui du saccharose; pouvoir édulcorant, sur une base pondérale [1, 6]: ~10 000 fois celui du saccharose; composé restant ([2]; after six days): la moitié
9 | OC[C@H]1O[C@H](O[C@]2(CCl)O[C@H](CCl)[C@@H](O)[C@@H]2O)[C@H](O)[C@@H](O)[C@H]1Cl [Trichlorogalactosucrose] | – | – | 2000 | –
10 | CC1=CC(=O)NS(=O)(=O)O1 [Acésulfame-K] | – | – | 200 | –
11 | OC[C@@H](O)[C@H](O)[C@@H](O)CO [Xylitol] | – | – | 1 | –
12 | COC(=O)[C@H](Cc1ccccc1)NC(=O)[C@@H](N)CC(=O)O [Aspartame] (H-Asp-Phe-OMe) | – | – | 200 | –
13 | N#Cc1cccc(N=C(NCC(=O)O)NCC2CCCCC2)c1 [Exemple 56, acide N-[N-cyclohexylméthylamino (3-cyanophénylimino)méthyl]-2-aminoéthanoïque] | 5000 | ~5 000 fois celui du saccharose | – | –
14 | Cc1cc(N=C(NCC(=O)O)N[C@@H](C)c2ccccc2)ccc1C#N [Exemple 22, acide N-[N-(S)-a-méthylbenzylamino (4-cyano-3-méthylphénylimino)méthyl]-2-aminoéthanoïque] | 50000 | ~50 000 fois celui du saccharose | – | –
15 | COc1ccc(CCC(=O)c2c(O)cc(O[C@@H]3O[C@H](CO)[C@@H](O)[C@H](O)[C@H]3O[C@@H]3O[C@@H](C)[C@H](O)[C@@H](O)[C@H]3O)cc2O)cc1O [Néohespéridine dihydrochalcone] | – | – | 1000 | –
